Laboratory results from US7217710B2, “Substituted pyrazolopyrimidines” (SmithKline Beecham Corporation, priority 2001, dated 2007).

Columns and labels:
Assay type in all cases: biochemical
Recombinant GST-Tie2 = Recombinant GST-Tie2 (Homo sapiens, UniProt Q02763); experiment: Tie2 Fluorescence Polarization Kinase Activity Assay (TIE2-FP)
Experimental: Tie2 Fluorescence Polarization Kinase Activity Assay: (TIE2-FP)
Activation of Recombinant Tie2 Activation:
Recombinant GST-Tie2 is activated by incubating the enzyme in 20 mM Tris-HCl, pH 7.5, 12 mM MgCl2, 100 mM NaCl, 20 μM sodium vanidate, 1 mM DTT and 300 μM ATP at room temperature for 2 hours. The activation mixture is then passed through a NAP-25 desalting column (Pharmacia Biotech cat. no. 17-0852-02) to remove the free ATP. The activated enzyme is stored as aliquots at −80° C. in 20 mM Tris-HCl, pH 7.5 and 100 mM NaCl.
The final assay conditions are 50 mM HEPES, pH 7.5, 5% DMSO (when screening compounds), 200 μM ATP, 5 mM MgCl2, 1 mM DTT, 50 μM sodium vanidate, 1 nM activated enzyme, and 200 μM peptide. IC50's of compounds are measured under subsaturating ATP (200 μM) and varying concentrations of activated Tie2 and peptide substrate (RFWKYEFWR-OH; MW 1873 Da, TFA salt). Panvera Anti-phosphotyrosine antibody (Cat#P2840) and PTK Green Tracer (Cat#P2842) are used to detect the phosphorylated peptide. Polarization is measured on a TECAN Polarion in 138-second cycles for 30 minutes at room temperature. IC50's are then determined from the % polarization using normal calculation methods. The IC50 values are converted to pIC50 values, i.e., −log IC50 in Molar concentration.

[1] = target: T1, GST-TIE2 (intracellular domains of human TIE2) (Homo sapiens, UniProt Q02763); experiment: TIE-2 Enzyme Assay (TIE2-E2), LANCE method; settings: read-out: TIE2 PIC50 TIE2-E2 assay
T1 construct: made in house
In short: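 GST-tagged human TIE2 intracellular domain (aa 762–1104), preactivated 2 h with 80 μM ATP, then 5 nM enzyme run 2 h at room temperature with 1 μM biotinylated D1–15 peptide, 80 μM ATP, HEPES pH 7.4, 2.4% DMSO. Phosphotyrosine detected by LANCE (Eu anti-pTyr/streptavidin-APC) after EDTA stop; IC50 by nonlinear regression, reported as pIC50.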

GST-VEGFR2 = target: T2, GST-VEGFR2 (Homo sapiens, UniProt P35968); experiment: VEGF-R2 Enzyme Assay (VEGF-E2), LANCE method; settings: for IC50: read-out: VEGFR2 PIC50 VEGFR-E2 assay
T2 construct: GST-VEGFR2, baculovirus expressed recombinant constructs of the intracellular domains; made in house

[2] = target: T3, catalytic domain of human VEGFR3 (Homo sapiens, UniProt P35916, H890Q); experiment: VEGFR-3 Homogenous Time-Resolved Fluorescence Assay (VEGFR-3-HTRF)
T3 construct: made in house; host or cells: Sf9 insect cells (baculovirus, pFastBac1)
In short: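 GST-tagged human VEGFR3 catalytic domain (aa 819–1298, Sf9-expressed), pre-autophosphorylated 45 min with ATP/Mg, then 1 nM enzyme with 0.36 μM biotinylated peptide, 75 μM ATP, 10 mM MgCl2, pH 7.2, 1.5 h at room temperature. EDTA stop; HTRF detection; IC50 from hyperbolic fit of % control.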

Chain of Recombinant GST-Tie2 (Q02763 23-1124): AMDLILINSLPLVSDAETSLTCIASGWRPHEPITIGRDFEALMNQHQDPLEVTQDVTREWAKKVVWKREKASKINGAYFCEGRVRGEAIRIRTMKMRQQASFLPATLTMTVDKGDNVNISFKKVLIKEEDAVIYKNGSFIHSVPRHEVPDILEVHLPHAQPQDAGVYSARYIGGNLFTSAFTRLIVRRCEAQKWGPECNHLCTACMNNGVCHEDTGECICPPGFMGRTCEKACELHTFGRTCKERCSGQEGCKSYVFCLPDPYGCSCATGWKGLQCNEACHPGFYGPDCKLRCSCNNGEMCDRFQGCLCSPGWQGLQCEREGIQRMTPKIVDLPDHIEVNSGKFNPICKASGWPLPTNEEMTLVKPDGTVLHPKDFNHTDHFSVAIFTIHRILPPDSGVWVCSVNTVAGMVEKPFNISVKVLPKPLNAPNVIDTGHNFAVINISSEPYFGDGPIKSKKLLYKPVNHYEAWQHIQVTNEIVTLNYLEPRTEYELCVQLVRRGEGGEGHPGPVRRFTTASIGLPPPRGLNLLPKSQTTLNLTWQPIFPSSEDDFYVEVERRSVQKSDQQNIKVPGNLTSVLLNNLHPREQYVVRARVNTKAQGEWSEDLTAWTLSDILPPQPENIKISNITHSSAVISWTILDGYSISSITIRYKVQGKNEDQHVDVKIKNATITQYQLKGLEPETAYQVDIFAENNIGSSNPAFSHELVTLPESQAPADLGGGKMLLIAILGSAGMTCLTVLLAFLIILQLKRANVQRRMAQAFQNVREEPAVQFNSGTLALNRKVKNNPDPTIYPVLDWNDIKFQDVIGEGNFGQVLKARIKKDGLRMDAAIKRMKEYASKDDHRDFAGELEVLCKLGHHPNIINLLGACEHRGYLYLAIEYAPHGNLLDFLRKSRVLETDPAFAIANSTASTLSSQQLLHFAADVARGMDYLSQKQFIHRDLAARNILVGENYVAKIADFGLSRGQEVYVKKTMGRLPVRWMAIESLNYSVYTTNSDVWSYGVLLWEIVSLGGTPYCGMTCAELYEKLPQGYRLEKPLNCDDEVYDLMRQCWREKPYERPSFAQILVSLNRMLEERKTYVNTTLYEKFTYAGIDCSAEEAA
T3 sequence (P35916 with tags, fused parts or gaps isoform P35916-1 H890Q): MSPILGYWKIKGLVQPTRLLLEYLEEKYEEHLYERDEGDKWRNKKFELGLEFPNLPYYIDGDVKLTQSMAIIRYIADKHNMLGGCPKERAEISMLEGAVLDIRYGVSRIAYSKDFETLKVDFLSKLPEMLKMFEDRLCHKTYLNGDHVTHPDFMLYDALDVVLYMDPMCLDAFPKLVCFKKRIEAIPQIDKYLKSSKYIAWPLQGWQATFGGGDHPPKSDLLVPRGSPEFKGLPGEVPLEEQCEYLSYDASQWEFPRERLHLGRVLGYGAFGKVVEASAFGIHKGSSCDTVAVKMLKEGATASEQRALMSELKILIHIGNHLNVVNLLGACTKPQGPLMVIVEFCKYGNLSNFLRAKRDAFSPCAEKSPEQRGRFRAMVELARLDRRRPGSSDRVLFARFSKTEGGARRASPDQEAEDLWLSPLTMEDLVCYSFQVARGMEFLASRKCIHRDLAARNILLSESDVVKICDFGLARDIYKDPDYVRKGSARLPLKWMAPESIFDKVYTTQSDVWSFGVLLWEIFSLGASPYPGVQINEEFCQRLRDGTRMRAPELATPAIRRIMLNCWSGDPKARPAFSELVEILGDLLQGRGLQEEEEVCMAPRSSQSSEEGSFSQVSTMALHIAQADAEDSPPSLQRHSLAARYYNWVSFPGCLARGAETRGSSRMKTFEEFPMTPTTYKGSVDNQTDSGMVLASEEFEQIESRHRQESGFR
T2 sequence (P35968 786-1356 limits assumed): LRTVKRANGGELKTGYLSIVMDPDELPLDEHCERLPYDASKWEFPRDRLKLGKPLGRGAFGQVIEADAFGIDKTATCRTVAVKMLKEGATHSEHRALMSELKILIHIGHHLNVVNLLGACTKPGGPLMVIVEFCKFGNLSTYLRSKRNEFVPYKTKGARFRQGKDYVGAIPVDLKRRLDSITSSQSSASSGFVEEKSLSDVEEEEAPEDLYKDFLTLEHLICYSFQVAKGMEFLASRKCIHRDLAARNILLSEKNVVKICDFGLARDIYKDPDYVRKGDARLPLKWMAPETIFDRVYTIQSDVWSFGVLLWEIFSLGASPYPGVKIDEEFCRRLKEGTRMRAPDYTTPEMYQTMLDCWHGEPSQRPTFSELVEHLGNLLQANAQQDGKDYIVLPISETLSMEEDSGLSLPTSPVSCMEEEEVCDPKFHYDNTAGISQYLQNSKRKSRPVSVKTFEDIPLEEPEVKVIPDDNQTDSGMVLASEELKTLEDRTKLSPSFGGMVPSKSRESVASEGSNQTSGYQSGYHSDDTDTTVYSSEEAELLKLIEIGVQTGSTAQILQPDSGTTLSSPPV
T1 sequence (Q02763 762-1104): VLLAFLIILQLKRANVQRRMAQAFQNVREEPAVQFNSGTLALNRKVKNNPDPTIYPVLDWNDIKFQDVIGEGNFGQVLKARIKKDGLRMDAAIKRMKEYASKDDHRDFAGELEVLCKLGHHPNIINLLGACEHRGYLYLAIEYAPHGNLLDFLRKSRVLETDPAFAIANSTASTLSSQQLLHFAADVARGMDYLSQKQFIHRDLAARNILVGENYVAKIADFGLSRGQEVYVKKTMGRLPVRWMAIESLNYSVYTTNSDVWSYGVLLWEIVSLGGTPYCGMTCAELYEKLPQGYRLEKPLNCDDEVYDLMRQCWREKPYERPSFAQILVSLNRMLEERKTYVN

inhibition at 10 µM (Recombinant GST-Tie2) | Compound | VEGFR2 PIC50 VEGFR-E2 assay (GST-VEGFR2) | IC50 (Recombinant GST-Tie2) | VEGFR3 PIC50 VEGFR-3-HTRF assay [2] | other results
25% | CC(=O)c1cccc(NC(=O)Nc2ccc(-c3nn(C)c4nc(NCCN5CCOCC5)ncc34)cc2C)c1 [Example 163] | – | – | – | IC50 [1]: > 10 µM
– | O=C(Nc1ccc(-c2n[nH]c3ncnc(N(CCN4CCOCC4)Cc4ccccc4)c23)cc1)Nc1cc(C(F)(F)F)ccc1F [Example 50, 1-{4-[Benzyl-(2-morpholin-4-yl-ethylamino)-1H-pyrazolo[3,4-d]pyrimidin-3-yl]-phenyl}-3-(fluoro-trifluoromethyl-phenyl)-urea] | ++ (++ = PIC50 = 6.00 to less than 7.00) | < 0.1 µM | + (+ = PIC50 = 5.00 to less than 6.00) | –
– | CCN(CC)CCCCNc1ncnc2c1c(-c1ccc(NC(=O)Nc3cc(C(F)(F)F)ccc3F)cc1)nn2C [Example 34, 1-{4-[(4-Diethylamino-butylamino)-methyl-1H-pyrazolo[3,4-d]pyrimidin-3-yl]-phenyl}-3-(2-fluoro-5-trifluoromethyl-phenyl)-urea] | + (+ = PIC50 = 5.00 to less than 6.00) | < 0.1 µM | + (+ = PIC50 = 5.00 to less than 6.00) | –
– | CCc1cccc(NC(=O)Nc2ccc(-c3nn(Cc4ccccc4)c4nc(NCCN5CCOCC5)ncc34)cc2)c1 [Example 52, 1-{4-[Benzyl-(2-morpholin-4-yl-ethylamino)-1H-pyrazolo[3,4-d]pyrimidin-3-yl]-phenyl}-3-(ethyl-phenyl)-urea] | + (+ = PIC50 = 5.00 to less than 6.00) | 0.1 to 0.3 µM | + (+ = PIC50 = 5.00 to less than 6.00) | –
– | 1-{4-[Benzyl-(2-morpholin-4-yl-ethylamino)-1H-pyrazolo[3,4-d]pyrimidin-3-yl]-phenyl}-3-(fluoro-trifluoromethyl-phenyl)-thiourea [Example 51] | + (+ = PIC50 = 5.00 to less than 6.00) | – | + (+ = PIC50 = 5.00 to less than 6.00) | TIE2 % inhibition (at 10 μM) TIE2-FP assay (Recombinant GST-Tie2; at 10 μM): 0%
– | Cn1nc(-c2ccc(NC(=O)Nc3cc(C(F)(F)F)ccc3F)cc2)c2cnc(NCCO)nc21 [Example 29, 1-(2-Fluoro-5-trifluoromethyl-phenyl)-3-{4-[(2-hydroxy-ethylamino)-methyl-1H-pyrazolo[3,4-d]pyrimidin-3-yl]-phenyl}-urea] | – | 0.1 to 0.3 µM | – | –
41% | Cc1cc(-c2nn(C)c3nc(NCCN4CCOCC4)ncc23)ccc1NS(=O)(=O)c1cccc(Cl)c1Cl [Example 151] | – | – | – | IC50 (GST-VEGFR2): > 10 µM
0% | Cn1nc(-c2ccc(NS(=O)(=O)c3cccc(C(F)(F)F)c3)c(C(F)(F)F)c2)c2cnc(NCCN3CCOCC3)nc21 [Example 157] | – | – | – | IC50 (GST-VEGFR2): > 10 µM
38% | Cn1nc(-c2ccc(NS(=O)(=O)c3cc(Cl)sc3Cl)cc2)c2cnc(NCCN3CCOCC3)nc21 [Example 149] | – | – | – | –
